Values joined by “and” are separate entries in the source; they are usually repeats but may differ in a detail not shown here. Identical values can stand only once.
Columns and labels:
splenocytes = assay: Splenocyte proliferation assay (3H-thymidine) after subcutaneous vaccination of mice with TG02; assay type: cell-based, BALB/c mice; details: ex vivo 10 μM TG02 per peptide or 1 μg/200 μL ConA, 5 days; for Counts per minute (CPM) of stimulated splenocytes: single replicates
Description: In this Example, mice were repeatedly vaccinated subcutaneously with TG02, in order to analyse the immune response. Following the vaccination, splenocytes were harvested, and the proliferative response of the splenocytes was measured.
The study was conducted with 3 groups, each compromising 10 female BALB/c mice. The start of the study was performed on two separate days on which 5 of the animals per group were treated. Therefore the groups were divided into part I and part II. The animals were treated subcutaneously at different time points (Table 30).
In all groups the test item was administered at repeated time points (Table 33) by subcutaneous injection between the nape of the neck and the shoulder. The application volume for all groups was 0.1 mL (0.80 mg TG02).
The spleen of all animals was removed, transferred to cell culture medium (RPMI 1640 medium supplemented with 10% FCS, 100 U/mL Penicillin, 100 μg/mL Streptomycin, 2 mM L-Glutamine, and 50 μM beta-mercaptoethanol) and stored on ice. All steps were performed sterile and cells were kept on ice.
A single cell suspension from splenic cells was generated using a cell strainer. After centrifugation (350 g, 5 min, 5±3° C.), supernatant was removed and the cell pellet was resuspended in ACK buffer and incubated for 5 min at RT. 10 mL cell culture medium was added. The samples were left 5 min on bench top to let the cell debris sediment. The suspension above the cell debris was transferred into another tube and was centrifuged (350 g, 5 min, 5±3° C.). The supernatant was removed and the cell pellet was resuspended in 10 mL cell culture medium. After counting of cells, 0.2 Mio cells were seeded in a 96 well plate (180 μL per well; 1,1*10^6 cells/mL). 9 replicates were plated on each plate for each spleen.
The following stimulations were performed: • 3 replicates: unstimulated (addition of 20 μL cell culture medium) • 3 replicates: stimulation with 10 μM TG02 (8 peptides, 10 μM end concentration per peptide, addition in 20 μL cell culture medium) • 3 replicates: stimulation with 1 μg/200 μL ConA (Concanavalin A) (addition of 1 μg ConA in 20 μL cell culture medium)
Incubation at 37° C. and 5% CO2 for 24 h (1), 48 h (2) or 5 days (3).
Proliferation Assay • (3) After 5 days, 1 μCi/well ^3H-Thymidine was added to the samples, which were then incubated for 18 h at 37° C. and 5% CO2. The plates were then frozen at […]
Plates were thawed at RT. After washing off the harvester, the samples were transferred to a filter plate using the harvester followed by 5 washing steps using water. Filter plates were dried at RT overnight. A foil was stuck to the bottom of the filter plates and 20 μL scintillation fluid was added to the wells. After incubation of 1 h at RT, the samples were measured using a TopCount NXT and the stimulation index (SI) was calculated. SI=CPM of stimulated samples/CPM of control samples.

T-cells [1] = assay: 3-day T-cell proliferation assay after stimulation of buffy coat PBMCs with TGX3 or A146T peptide; assay type: cell-based, human; details: buffy coat of healthy donor (buffy 5), FIG. 11
Excerpt: In this Example, Buffy coats were collected from three normal donors (Buffy 5, Buffy 6, and Buffy 7) for testing of T cell responses to selected peptides reflecting exon 2, 3 and 4 mutations in RAS. The standard operating procedure (SOP) for monitoring of T cell responses in clinical studies with KRAS peptide vaccination (TG01) was used for testing of peptide cocktail TGX3 and individual peptides.
Peptide cocktail TGX3 was a mixture of equimolar amounts of A146T+G13C+G13D+Q61R.
The procedure was performed at room temperature. All handling of cells in the open was done in a vertical laminar flow hood. • 1. 3 Buffy coats were ordered from Blodbanken, Ulleval, OUS, Norway • 2. PBMCs were isolated according to methods C001-003 (platelet-low). • 3. The number of viable cells was counted using KOVA Galsstic slides and the cell concentration adjusted to 4×10^6 cells/ml in complete CellGro DC medium (see recipe). Total cell numbers: Buffy 5-585×10^6, Buffy 6-360×10^6, and Buffy 7-405×10^6 cells. […]
c) Second Stimulation (Day 14) of Bulk Cultures • 1. Day 14: Harvested, washed and counted T-cells in the bulk cultures from 6.2; […]
d) Third Stimulation (Day 19) and Testing for Specificities in 3-Day T-Cell Proliferation Assay—Bulk Cultures • 1. Day 19: Harvested, washed and counted T-cells in the bulk cultures from 6.3; […]

T-cells [2] = assay: Bulk cultures for increasing number of TGX3 and peptide reactive T-cells: total T cell numbers; assay type: cell-based, human; details: for Total T cell numbers in cultures: Day 14, after first stimulation, 10 μM of each peptide; for Total T cell numbers: Day 19, after second stimulation
Description: b) First Stimulation—Bulk Cultures for Increasing Number of TGX3 and Peptide Reactive T-Cells • 1. Transfered 1 ml of the different PBMCs (4×10^6 cells/ml in DC medium) to each well in a 24-well plate.
• 2. Added TGX3-mix/single peptide to each well for a final concentration of 10 μM of each peptide. • 3. Cultured the cells in a humidified incubator at 37° C./5% CO2 for 3 days • 4. Day 3: Added a final concentration of 20 iU/ml of recombinant human interleukin-2 (rIL-2, b#77) and final concentration of 5 ng/ml recombinant human IL-7 (b#25) to the cell cultures and continued incubation at 37° C./5% CO2. This depended on how fast the cells were growing and needed to be decided by a trained person with T-cell culture experience (according to checklist for training, Section for Cell Therapy). • 5. Days 4-12: Cells were checked regularly under the microscope and split when required (500 μl was withdrawn from each well and replaced with 500 μl fresh CellGro DC medium, supplemented with 20 iU/ml IL-2 and 5 ng/ml IL-7) and wells with slow growing cells were mixed together.
c) Second Stimulation (Day 14) of Bulk Cultures • 1. Day 14: Harvested, washed and counted T-cells in the bulk cultures from 6.2;
Bulk culture cells (ca 2×10^6 T cells/well) were re-stimulated once more with autologous irradiated (30 Gy) APCs (ca 2×10^6 APCs/well) added their respective peptides (as described in step b) above). • 2. Cultured the cells in a humidified incubator at 37° C./5% CO2 for 3 days. • 3. Day 3 after second stimulation (i.e. Day 17 of the procedure): A final concentration of 20 iU/ml of recombinant human interleukin-2 (rIL-2, b#77) and final concentration of 5 ng/ml recombinant human IL-7 (b#25) were added to the cell cultures and continued incubation at 37° C./5% CO2 (as described in step b) above). • 4. Day 18-26: Cells were checked regularly under the microscope and split when required (500 μl was withdrawn from each well and replaced with 500 μl fresh CellGro DC medium, supplemented with 20 iU/ml IL-2 and 5 ng/ml IL-7) and wells with slow growing cells were mixed together (see step b) above).
d) Third Stimulation (Day 19) and Testing for Specificities in 3-Day T-Cell Proliferation Assay—Bulk Cultures • 1. Day 19: Harvested, washed and counted T-cells in the bulk cultures from 6.3;

For Concanavalin A [ConA], the “Mean counts per minute (CPM) of stimulated splenocytes” value (“Mean counts per minute (CPM)” for short) (splenocytes; Mean Mouse #4 (vaccinated with TG02)) was 15,210 CPM, the “Mean counts per minute (CPM)” value (splenocytes; Mean Mouse #7 (vaccinated with TG02)) was 6158 CPM and the “Mean counts per minute (CPM)” value (splenocytes; Mean Mouse #24 (vaccinated with TG02+Viscogel)) was 8823 CPM. For the same substance, the “Mean counts per minute (CPM)” value (splenocytes; Mean Mouse #29 (vaccinated with TG02+Viscogel)) was 10,935 CPM, the “Counts per minute (CPM) of stimulated splenocytes” value (splenocytes; Mouse #4 (vaccinated with TG02)) was 15,113 CPM and 12,612 CPM and 17,906 CPM and the “Counts per minute (CPM) of stimulated splenocytes” value (splenocytes; Mouse #7 (vaccinated with TG02)) was 5305 CPM and 6252 CPM and 6916 CPM. The “Counts per minute (CPM) of stimulated splenocytes” value (splenocytes; Mouse #24 (vaccinated with TG02+Viscogel)) was 7834 CPM and 8578 CPM and 10,057 CPM, the “Counts per minute (CPM) of stimulated splenocytes” value (splenocytes; Mouse #29 (vaccinated with TG02+Viscogel)) was 9480 CPM and 13,292 CPM and 10,033 CPM and the “Counts per minute (CPM) of stimulated splenocytes” value (splenocytes; Mouse #30 (vaccinated with TG02+Viscogel)) was 32,205 CPM and 35,668 CPM and 42,149 CPM. The “Mean counts per minute (CPM)” value (splenocytes; Mouse #30 mean line (vaccinated with TG02+Viscogel)) was 36,687 CPM.
For “GIPFIETSTKTRQRVED (listed as Homo sapiens) [A146T, KRAS peptide having a A146T mutation]”, the “T-cell proliferation after stimulation with A146T peptide (result in words)” value (T-cells [1]) was “immunogenic and is efficient in inducing T-cell proliferation”, the “T-cell proliferation after stimulation with A146T peptide (result in words)” value (T-cells [1]; listed as A146T peptide) was “stimulates induction of T-cells” and the “Total T cell numbers in cultures” value (T-cells [2]; Buffy 5) was 4 × 10^6. For the same substance, the “Total T cell numbers” value (T-cells [2]; Buffy 5) was 10.8 × 10^6, the “Total T cell numbers in cultures” value (T-cells [2]; Buffy 6) was 4 × 10^6 and the “Total T cell numbers” value (T-cells [2]; Buffy 6) was 12.6 × 10^6. For the same substance, the “Total T cell numbers in cultures” value (T-cells [2]; Buffy 7) was 6.8 × 10^6 and the “Total T cell numbers” value (T-cells [2]; Buffy 7) was 14.4 × 10^6.
